{"source": "ChEMBL document CHEMBL4393714", "about": "“Multi-targeting protein-protein interaction inhibitors: Evolution of macrocyclic ligands with embedded carbohydrates (MECs) to improve selectivity” (Eur J Med Chem, 2019)", "key": {"[1]": {"target": "5-hydroxytryptamine receptor 2A (Homo sapiens, UniProt P28223)", "sequence (P28223 whole entry)": "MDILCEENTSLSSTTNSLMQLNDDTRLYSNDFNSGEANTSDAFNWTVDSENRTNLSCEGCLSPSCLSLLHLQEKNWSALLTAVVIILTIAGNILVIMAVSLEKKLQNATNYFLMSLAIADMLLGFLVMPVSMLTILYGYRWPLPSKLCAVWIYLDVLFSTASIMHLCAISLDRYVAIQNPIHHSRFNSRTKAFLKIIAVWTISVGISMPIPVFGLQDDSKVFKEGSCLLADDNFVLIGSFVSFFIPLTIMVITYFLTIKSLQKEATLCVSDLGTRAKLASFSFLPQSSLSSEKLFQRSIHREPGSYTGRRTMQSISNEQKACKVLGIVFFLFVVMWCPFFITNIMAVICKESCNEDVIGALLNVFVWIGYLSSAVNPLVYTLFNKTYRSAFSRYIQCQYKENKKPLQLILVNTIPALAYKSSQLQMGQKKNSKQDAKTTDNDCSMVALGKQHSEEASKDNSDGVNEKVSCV", "experiment": "Displacement of [3H] ketanserin from human recombinant 5-HT2A receptor measured after 60 mins by scintillation counter method"}, "[2]": {"target": "Delta-type opioid receptor (Homo sapiens) (UniProt P41143)", "sequence (P41143 whole entry)": "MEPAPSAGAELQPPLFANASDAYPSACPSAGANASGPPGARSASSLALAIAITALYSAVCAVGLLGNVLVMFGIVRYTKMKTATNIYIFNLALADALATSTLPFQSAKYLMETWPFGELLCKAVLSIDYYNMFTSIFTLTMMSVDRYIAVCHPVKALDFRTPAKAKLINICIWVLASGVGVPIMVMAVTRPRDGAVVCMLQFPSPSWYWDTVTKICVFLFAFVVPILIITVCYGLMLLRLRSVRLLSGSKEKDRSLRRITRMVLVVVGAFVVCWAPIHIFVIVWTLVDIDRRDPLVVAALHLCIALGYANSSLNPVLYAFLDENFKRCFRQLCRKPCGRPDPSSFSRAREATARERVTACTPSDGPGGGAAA", "experiment": "Displacement of [3H] DADLE from human delta opioid receptor at 10 uM measured after 60 mins by scintillation counter method relative to control"}, "Rattus norvegicus": {"species": "Rattus norvegicus", "experiment": "Displacement of [3H] TBPS from rat GABA gated chloride channel at 10 uM measured after 120 mins by scintillation counter method relative to control"}, "[3]": {"target": "Cav1.2 (L-type calcium channel subunit alpha-1C) (Rattus norvegicus, UniProt P22002)", "experiment": "Displacement of [3H] D888 from rat Cav1.2 (L-type) at 10 uM measured after 120 mins by scintillation counter method relative to control", "conditions": "probe [3H] D888"}, "[4]": {"target": "5-hydroxytryptamine receptor 7 (Homo sapiens) (UniProt P34969)", "sequence (P34969 whole entry)": "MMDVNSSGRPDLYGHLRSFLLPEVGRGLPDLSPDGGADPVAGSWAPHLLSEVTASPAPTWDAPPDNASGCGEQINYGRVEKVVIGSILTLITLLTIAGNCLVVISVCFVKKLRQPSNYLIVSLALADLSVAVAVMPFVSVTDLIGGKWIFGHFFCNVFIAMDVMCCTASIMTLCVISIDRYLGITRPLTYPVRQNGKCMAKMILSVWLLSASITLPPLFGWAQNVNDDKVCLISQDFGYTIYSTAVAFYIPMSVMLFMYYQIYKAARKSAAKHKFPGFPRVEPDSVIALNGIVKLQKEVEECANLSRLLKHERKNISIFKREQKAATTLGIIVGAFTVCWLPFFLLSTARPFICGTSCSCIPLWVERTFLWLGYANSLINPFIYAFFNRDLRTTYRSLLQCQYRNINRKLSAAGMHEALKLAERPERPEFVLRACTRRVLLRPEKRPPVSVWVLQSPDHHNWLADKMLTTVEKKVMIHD", "experiment": "Displacement of [3H]LSD from human recombinant 5-HT7 receptor at 10 uM measured after 120 mins by scintillation counter method relative to control"}, "[5]": {"target": "5-hydroxytryptamine receptor 2B (Homo sapiens, UniProt P41595)", "sequence (P41595 whole entry)": "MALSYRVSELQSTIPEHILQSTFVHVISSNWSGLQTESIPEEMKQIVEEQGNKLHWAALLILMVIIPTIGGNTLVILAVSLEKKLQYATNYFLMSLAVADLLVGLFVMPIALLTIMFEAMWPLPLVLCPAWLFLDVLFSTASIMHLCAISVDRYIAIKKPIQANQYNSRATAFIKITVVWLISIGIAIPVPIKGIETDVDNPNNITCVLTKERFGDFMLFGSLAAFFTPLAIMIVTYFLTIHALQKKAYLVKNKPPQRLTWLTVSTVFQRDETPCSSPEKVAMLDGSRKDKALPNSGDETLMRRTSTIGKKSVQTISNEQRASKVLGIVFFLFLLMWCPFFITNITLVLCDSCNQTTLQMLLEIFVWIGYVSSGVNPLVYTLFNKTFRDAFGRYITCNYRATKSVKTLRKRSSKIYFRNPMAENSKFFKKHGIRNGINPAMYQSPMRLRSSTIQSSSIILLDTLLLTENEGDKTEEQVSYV", "experiment": "Displacement of [125I](+/-)DOI from human recombinant 5-HT2B receptor at 10 uM measured after 60 mins by scintillation counter method relative to control"}, "[6]": {"target": "Beta-1 adrenergic receptor (Homo sapiens) (UniProt P08588)", "sequence (P08588 whole entry, looked up)": "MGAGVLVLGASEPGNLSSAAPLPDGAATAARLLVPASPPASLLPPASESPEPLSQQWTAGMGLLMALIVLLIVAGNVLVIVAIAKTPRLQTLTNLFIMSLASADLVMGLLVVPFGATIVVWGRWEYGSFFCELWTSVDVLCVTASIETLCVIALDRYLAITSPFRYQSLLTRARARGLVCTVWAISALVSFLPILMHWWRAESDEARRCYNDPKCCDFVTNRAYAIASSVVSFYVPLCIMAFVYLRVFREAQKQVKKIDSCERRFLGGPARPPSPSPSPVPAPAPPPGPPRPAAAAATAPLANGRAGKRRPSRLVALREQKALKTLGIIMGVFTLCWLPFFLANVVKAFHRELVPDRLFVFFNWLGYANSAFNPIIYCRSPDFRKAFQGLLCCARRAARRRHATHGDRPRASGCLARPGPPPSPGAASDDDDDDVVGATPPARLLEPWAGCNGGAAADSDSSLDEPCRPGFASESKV", "experiment": "Displacement of [3H] (-)CGP 12177 from human recombinant beta1 adreno receptor at 10 uM measured after 60 mins by scintillation counter method relative to control"}, "[7]": {"target": "Melatonin receptor type 1A (Homo sapiens) (UniProt P48039)", "sequence (P48039 whole entry)": "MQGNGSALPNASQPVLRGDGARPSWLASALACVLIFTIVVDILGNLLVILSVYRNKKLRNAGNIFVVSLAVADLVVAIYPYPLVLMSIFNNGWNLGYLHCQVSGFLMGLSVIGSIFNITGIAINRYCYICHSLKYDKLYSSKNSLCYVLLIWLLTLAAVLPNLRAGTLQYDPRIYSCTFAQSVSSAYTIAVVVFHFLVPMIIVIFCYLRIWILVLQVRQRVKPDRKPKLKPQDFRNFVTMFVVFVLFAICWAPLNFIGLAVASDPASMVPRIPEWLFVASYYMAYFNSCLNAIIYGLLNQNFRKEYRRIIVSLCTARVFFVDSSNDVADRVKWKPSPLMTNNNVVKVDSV", "experiment": "Displacement of [125I]2-iodomelatonin from human recombinant MT 1 receptor at 10 uM measured after 60 mins by scintillation counter method relative to control"}, "[8]": {"target": "Adenosine receptor A1 (Homo sapiens) (UniProt P30542)", "sequence (P30542 whole entry)": "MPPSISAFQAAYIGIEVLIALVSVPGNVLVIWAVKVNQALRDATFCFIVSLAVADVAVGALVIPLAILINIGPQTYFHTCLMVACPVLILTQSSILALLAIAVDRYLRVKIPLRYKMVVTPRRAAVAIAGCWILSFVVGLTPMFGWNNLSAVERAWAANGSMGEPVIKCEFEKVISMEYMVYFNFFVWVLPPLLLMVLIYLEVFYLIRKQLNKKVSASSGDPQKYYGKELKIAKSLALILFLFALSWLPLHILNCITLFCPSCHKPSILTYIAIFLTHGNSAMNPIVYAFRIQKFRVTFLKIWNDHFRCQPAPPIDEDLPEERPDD", "experiment": "Displacement of [3H]DPCPX from human recombinant A1 receptor at 10 uM measured after 60 mins by scintillation counter method relative to control"}}, "data": [{"smiles": "CC(C)CCO[C@@H]1[C@H]2OC(C)(C)O[C@H]2[C@H]2Cn3cc(nn3)COCCCCCCN(CCc3ccc4ccccc4c3)CC[C@H]1O2", "values": [{"measurement": "IC50", "setting": "[1]", "result": 1800, "unit": "nM"}, {"measurement": "Ki", "setting": "[1]", "result": 970, "unit": "nM"}, {"measurement": "inhibition", "setting": "[2]", "result": 83.4, "unit": "%"}, {"measurement": "inhibition", "setting": "Rattus norvegicus", "result": 62.4, "unit": "%"}, {"measurement": "inhibition at 2 h, 10 µM", "setting": "[3]", "result": 90.5, "unit": "%"}, {"measurement": "inhibition", "setting": "[4]", "result": 22.7, "unit": "%"}, {"measurement": "inhibition", "setting": "[5]", "result": 81.6, "unit": "%"}, {"measurement": "inhibition", "setting": "[6]", "result": 10.6, "unit": "%"}, {"measurement": "inhibition", "setting": "[7]", "result": 29.2, "unit": "%"}, {"measurement": "inhibition", "setting": "[8]", "result": 19, "unit": "%"}]}]}
